Measurements from EP2982983B1, “METHOD FOR DRUG SUSCEPTIBILITY TESTING OF MYCOBACTERIUM TUBERCULOSIS BY ELECTRON PARAMAGNETIC RESONANCE” (priority 2014, dated 2016).

What was measured:
[1] = species not given; cited from earlier work
[2] = system: M. tuberculosis H37Rv (ATCC 27294); type: cell-based, Mycobacterium tuberculosis; conditions: one day (24 h) exposure to the Cmax of the drug (rifampicin 8 µg/ml, moxifloxacin 4 µg/ml, amikacin 8 µg/ml), compared with control without drug

SMILES: NCC[C@H](O)C(=O)N[C@@H]1C[C@H](N)[C@@H](O[C@H]2O[C@H](CN)[C@@H](O)[C@H](O)[C@H]2O)[C@H](O)[C@H]1O[C@H]1O[C@H](CO)[C@@H](O)[C@H](N)[C@H]1O [amikacin]
- Cmax value (maximum drug concentration in serum) [1]: 8000 ng/mL
- rate of CP^• formation [2]: quite high rate

SMILES: COc1c(N2C[C@@H]3CCCN[C@@H]3C2)c(F)cc2c(=O)c(C(=O)O)cn(C3CC3)c12 [moxifloxacin]
- Cmax value (maximum drug concentration in serum) [1]: 4000 ng/mL

SMILES: CO[C@H]1/C=C/O[C@@]2(C)Oc3c(C)c(O)c4c(O)c(c(/C=N/N5CCN(C)CC5)c(O)c4c3C2=O)NC(=O)/C(C)=C\C=C\[C@H](C)[C@H](O)[C@@H](C)[C@@H](O)[C@@H](C)[C@H](OC(C)=O)[C@@H]1C [rifampicin]
- Cmax value (maximum drug concentration in serum) [1]: 8000 ng/mL
